According to ChEMBL document CHEMBL1201862, “PubChem BioAssay data set” (2004):
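In this assay, cells in 96-well plates receive the compound at five concentrations for 48 hours. Endpoints are linearly interpolated between the surrounding concentrations. GI50: concentration for 50% inhibition of growth.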 Active and inactive are the calls of the source. Cut-off read from the data, not from the text of the source: active = GI50 up to about 1.1 µM and inactive = higher.

Columns and labels:
Test in all cases: growth of human tumour cells (NCI), 48 h
[1] = system: LOX IMVI
[2] = system: Malme-3M
[3] = system: HOP-92
[4] = system: SF-268
[5] = system: UACC-257
[6] = system: HCC 2998
[7] = system: NCI/ADR-RES
[8] = system: OVCAR-5
[9] = system: MDA-N
[10] = system: SW-620
[11] = system: MDA-MB-435
[12] = system: CCRF-CEM
[13] = system: SNB-19
[14] = system: OVCAR-3
[15] = system: COLO 205
[16] = system: CAKI-1
[17] = system: 786-0
[18] = system: KM12

Measured: GI50

CCc1n[nH]c(=O)n1CCCCCCCCn1c(CC)n[nH]c1=O
inactive: [1] > 100 µM | [2] > 100 µM | [3] > 100 µM | [4] > 100 µM | [5] > 100 µM | [6] > 100 µM | [7] > 100 µM | [8] > 100 µM | [9] > 100 µM | [10] > 100 µM | [11] > 100 µM | [12] > 100 µM | [13] > 100 µM | [14] > 100 µM | [15] > 100 µM | [16] > 100 µM | [17] > 100 µM | [18] > 100 µM

COc1cc2c(cc1OC)C1=CCC(c3ccccc3)[N+]1(C)CC2 (stereo not given)
inactive: [1] > 100 µM | [2] 56.9 µM | [3] > 100 µM | [4] > 100 µM | [5] 33.5 µM | [6] > 100 µM | [7] > 100 µM | [8] > 100 µM | [9] > 100 µM | [10] > 100 µM | [11] > 100 µM | [12] > 100 µM | [13] > 100 µM | [14] > 100 µM | [15] > 100 µM | [16] > 100 µM | [17] > 100 µM | [18] > 100 µM

COc1cc(OCc2ccc3nc(-c4ccccc4)c(N)nc3c2)cc(OC)c1OC
inactive: [1] 13.7 µM | [2] 13.4 µM | [3] 11.4 µM | [4] 34.8 µM | [5] 25 µM | [6] 35 µM | [7] 20.7 µM | [8] 17.6 µM | [9] 15.5 µM | [10] 28.2 µM | [11] 19.1 µM | [12] 16.7 µM | [13] 24.2 µM | [14] 16.4 µM | [15] 16.5 µM | [16] 23.4 µM | [17] 30.8 µM | [18] 18.6 µM

Nn1c(SCC(=O)NCc2ccccc2)nc2ccccc2c1=O
inactive: [1] 49 µM | [2] 51.2 µM | [3] 34.2 µM | [4] 38.2 µM | [5] 58.2 µM | [6] 44.8 µM | [7] 36.5 µM | [8] > 100 µM | [9] 38.9 µM | [10] 57 µM | [11] 45.8 µM | [12] 13.7 µM | [13] 67 µM | [14] 32.3 µM | [15] 48.5 µM | [16] 84.1 µM | [17] 55.6 µM | [18] > 100 µM

COc1cc2c3c(n(Cc4ccccc4)c(=O)c2cc1OC)-c1ccccc1C3=O
inactive: [1] > 100 µM | [2] > 100 µM | [3] > 100 µM | [4] 82.2 µM | [5] > 100 µM | [6] > 100 µM | [7] > 100 µM | [8] > 100 µM | [9] > 100 µM | [10] > 100 µM | [11] > 100 µM | [12] 17.9 µM | [13] > 100 µM | [14] > 100 µM | [15] > 100 µM | [16] 92.9 µM | [17] 93.5 µM | [18] > 100 µM

CC(C)C1=CC23CCC4C(C)(C(=O)O)CCCC4(C)C2CC1C1C(=O)N(c2ccc(C(=O)O)cc2)C(=O)C13 (stereo not given)
inactive: [1] > 100 µM | [2] > 100 µM | [3] > 100 µM | [4] > 100 µM | [5] > 100 µM | [6] > 100 µM | [7] > 100 µM | [9] > 100 µM | [10] > 100 µM | [11] > 100 µM | [13] > 100 µM | [14] > 100 µM | [15] > 100 µM | [16] > 100 µM | [17] > 100 µM | [18] > 100 µM

c1ccc2sc(SCSc3nc4ccccc4s3)nc2c1
inactive: [1] 47.2 µM | [2] > 100 µM | [3] > 100 µM | [4] > 100 µM | [5] 28.5 µM | [6] 75.9 µM | [7] 94 µM | [8] > 100 µM | [9] 76.2 µM | [10] 96.8 µM | [11] > 100 µM | [12] 47.4 µM | [13] > 100 µM | [14] 92.7 µM | [16] > 100 µM | [17] 82.4 µM | [18] > 100 µM

CCOC(=O)C1(C#N)C2(C#N)C(N)=NC(ON=C(C)C)(ON=C(C)C)C12C#N (stereo not given)
inactive: [1] > 100 µM | [2] > 100 µM | [3] > 100 µM | [4] > 100 µM | [5] > 100 µM | [6] > 100 µM | [7] > 100 µM | [8] > 100 µM | [9] > 100 µM | [10] > 100 µM | [11] > 100 µM | [12] > 100 µM | [13] > 100 µM | [15] > 100 µM | [16] > 100 µM | [17] > 100 µM | [18] > 100 µM
